Laboratory results from ChEMBL document CHEMBL3779877, “Anticancer activity studies of cubebin isolated from Piper cubeba and its synthetic derivatives” (Bioorg Med Chem Lett, 2016).
Activity calls are given as the source filed them. No cut-off for these calls is given here.

Assays:
SiHa = assay: Cytotoxicity against human SiHa cells assessed as reduction in viable cells after 48 hrs by MTT assay; format: functional, cell-based
K562 = assay: Cytotoxicity against human K562 cells assessed as reduction in viable cells after 48 hrs by MTT assay; format: functional, cell-based; details: K562, 48 h
[1] = Cytotoxicity against human HCT116 cells assessed as reduction in viable cells after 48 hrs by MTT assay; format: functional, cell-based; details: HCT-116, 48 h
A549 [2] = assay: Cytotoxicity against human A549 cells assessed as reduction in viable cells after 48 hrs by MTT assay; format: functional, cell-based; details: A549, 48 h
KB [3] = assay: Cytotoxicity against human KB cells assessed as reduction in viable cells after 48 hrs by MTT assay; format: functional, cell-based
HT-29 = assay: Cytotoxicity against human HT-29 cells assessed as reduction in viable cells after 48 hrs by MTT assay; format: functional, cell-based; details: HT-29, 48 h
KB [4] = assay: Induction of apoptosis in human KB cells assessed as fragmented nuclei at cytotoxic IC50 after 48 hrs by Hoechst 33342 staining based fluorescent microscopic analysis; format: functional, cell-based
KB [5] = assay: Induction of apoptosis in human KB cells assessed as loss of normal nuclear architecture at cytotoxic IC50 after 48 hrs by inverted microscopic analysis; format: functional, cell-based
A549 [6] = assay: Induction of apoptosis in human A549 cells assessed as loss of normal nuclear architecture at cytotoxic IC50 after 48 hrs by inverted microscopic analysis; format: functional, cell-based
A549 [7] = assay: Induction of apoptosis in human A549 cells assessed as fragmented nuclei at cytotoxic IC50 after 48 hrs by Hoechst 33342 staining based fluorescent microscopic analysis; format: functional, cell-based
A549 [8] = assay: Induction of apoptosis in human A549 cells assessed as cell shrinkage at cytotoxic IC50 after 48 hrs by inverted microscopic analysis; format: functional, cell-based
A549 [9] = assay: Induction of apoptosis in human A549 cells assessed as detached cells at cytotoxic IC50 after 48 hrs by inverted microscopic analysis; format: functional, cell-based
A549 [10] = assay: Induction of apoptosis in human A549 cells assessed as cell shrinkage at cytotoxic IC50 after 48 hrs by AO/EB dual staining based fluorescent microscopic analysis; format: functional
A549 [11] = assay: Induction of apoptosis in human A549 cells assessed as membrane blebbing at cytotoxic IC50 after 48 hrs by AO/EB dual staining based fluorescent microscopic analysis; format: functional, cell-based
KB [12] = assay: Induction of apoptosis in human KB cells assessed as cell shrinkage at cytotoxic IC50 after 48 hrs by AO/EB dual staining based fluorescent microscopic analysis; format: functional
KB [13] = assay: Induction of apoptosis in human KB cells assessed as cell shrinkage at cytotoxic IC50 after 48 hrs by inverted microscopic analysis; format: functional, cell-based
KB [14] = assay: Induction of apoptosis in human KB cells assessed as detached cells at cytotoxic IC50 after 48 hrs by inverted microscopic analysis; format: functional, cell-based
KB [15] = assay: Induction of apoptosis in human KB cells assessed as condensed nuclei at cytotoxic IC50 after 48 hrs by Hoechst 33342 staining based fluorescent microscopic analysis; format: functional, cell-based
KB [16] = assay: Induction of apoptosis in human KB cells assessed as membrane blebbing at cytotoxic IC50 after 48 hrs by AO/EB dual staining based fluorescent microscopic analysis; format: functional, cell-based
A549 [17] = assay: Induction of apoptosis in human A549 cells assessed as chromosomal condensation at cytotoxic IC50 after 48 hrs by AO/EB dual staining based fluorescent microscopic analysis; format: functional, cell-based
A549 [18] = assay: Induction of apoptosis in human A549 cells assessed as condensed nuclei at cytotoxic IC50 after 48 hrs by Hoechst 33342 staining based fluorescent microscopic analysis; format: functional, cell-based
KB [19] = assay: Induction of apoptosis in human KB cells assessed as chromosomal condensation at cytotoxic IC50 after 48 hrs by AO/EB dual staining based fluorescent microscopic analysis; format: functional, cell-based
[20] = Cytotoxicity against human HCT116; format: functional; details: HCT-116

| Compound | IC50 (SiHa) | IC50 (K562) | IC50 [1] | IC50 (A549 [2]) | IC50 (KB [3]) | IC50 (HT-29) | further results |
| --- | --- | --- | --- | --- | --- | --- | --- |
| O=C(NCc1ccc(F)cc1)[C@@H](Cc1ccc2c(c1)OCO2)[C@@H](CO)Cc1ccc2c(c1)OCO2 | 80 µM | 7.76 µM | 34.1 µM | 8.94 µM | 33.8 µM | 24.6 µM | – |
| CC(C)CCNC(=O)[C@@H](Cc1ccc2c(c1)OCO2)[C@@H](CO)Cc1ccc2c(c1)OCO2 | 95.8 µM | 48.8 µM | 66.8 µM | 8.75 µM | 8.94 µM | 23.8 µM | – |
| O=C1[C@@H](Cc2ccc3c(c2)OCO3)[C@H](Cc2ccc3c(c2)OCO3)C(=O)N1Cc1ccccc1 | > 100 µM | 8.88 µM | 65.4 µM | 58.6 µM | 7.36 µM | 71.8 µM | – |
| O=C(NCCc1ccccc1)[C@@H](Cc1ccc2c(c1)OCO2)[C@@H](CO)Cc1ccc2c(c1)OCO2 | 57.5 µM | 7.91 µM | 7.83 µM | 7.28 µM | 7.09 µM | 58.9 µM | – |
| O=C(NCc1ccccc1)[C@@H](Cc1ccc2c(c1)OCO2)[C@@H](CO)Cc1ccc2c(c1)OCO2 | > 100 µM | 8.6 µM | 93.5 µM | 10.8 µM | 9.16 µM | 68 µM | – |
| O=C1OC[C@@H](Cc2ccc3c(c2)OCO3)[C@@H]1Cc1ccc2c(c1)OCO2 | 68.4 µM | 9.07 µM | 72.6 µM | 7.86 µM | 7.68 µM | 35.7 µM | Activity (KB [4]): Active; Activity (KB [5]): Active; Activity (A549 [6]): Active; Activity (A549 [7]): Active; Activity (A549 [8]): Active; Activity (A549 [9]): Active; Activity (A549 [10]): Active; Activity (A549 [11]): Active; Activity (KB [12]): Active; Activity (KB [13]): Active; Activity (KB [14]): Active; Activity (KB [15]): Active; Activity (KB [16]): Active; Activity (A549 [17]): Active; Activity (A549 [18]): Active; Activity (KB [19]): Active |
| CC(C)CCN1C(=O)[C@@H](Cc2ccc3c(c2)OCO3)[C@H](Cc2ccc3c(c2)OCO3)C1=O | 89.3 µM | > 100 µM | 67.7 µM | > 100 µM | 7.71 µM | 66.2 µM | – |
| O=C1[C@@H](Cc2ccc3c(c2)OCO3)[C@H](Cc2ccc3c(c2)OCO3)C(=O)N1Cc1ccc(F)cc1 | > 100 µM | > 100 µM | > 100 µM | > 100 µM | 8.95 µM | 72.1 µM | – |
| COc1cc([C@@H]2c3cc4c(cc3[C@H](O)[C@H]3COC(=O)[C@H]23)OCO4)cc(OC)c1OC [PODOFILOX] | – | – | – | – | – | – | IC50 [20]: 0.01 µM |
| COc1ccc(CN2C(=O)[C@@H](Cc3ccc4c(c3)OCO4)[C@H](Cc3ccc4c(c3)OCO4)C2=O)cc1 | 33.4 µM | 8.69 µM | > 100 µM | 45.5 µM | 9.13 µM | 72.6 µM | – |
| OC1OC[C@@H](Cc2ccc3c(c2)OCO3)[C@@H]1Cc1ccc2c(c1)OCO2 (some centres not stated) | > 100 µM | 8.66 µM | 45.1 µM | 8.3 µM | 8.16 µM | 45.2 µM | – |
| O=C(NCc1c[nH]c2ccccc12)[C@@H](Cc1ccc2c(c1)OCO2)[C@@H](CO)Cc1ccc2c(c1)OCO2 | > 100 µM | > 100 µM | > 100 µM | > 100 µM | 6.38 µM | 52.1 µM | Activity (KB [4]): Active; Activity (KB [5]): Active; Activity (KB [12]): Active; Activity (KB [13]): Active; Activity (KB [14]): Active; Activity (KB [15]): Active; Activity (KB [16]): Active; Activity (KB [19]): Active |
| COc1cccc(CNC(=O)[C@@H](Cc2ccc3c(c2)OCO3)[C@@H](CO)Cc2ccc3c(c2)OCO3)c1 | 25.3 µM | 7.98 µM | > 100 µM | 7.28 µM | 80.5 µM | 25.5 µM | – |
| O=C(NCc1ccc(C(F)(F)F)cc1)[C@@H](Cc1ccc2c(c1)OCO2)[C@@H](CO)Cc1ccc2c(c1)OCO2 | 73.7 µM | 8.86 µM | > 100 µM | > 100 µM | 19.2 µM | 64.9 µM | – |
| COc1cc([C@@H]2c3cc4c(cc3[C@@H](O[C@@H]3O[C@@H]5CO[C@@H](C)O[C@H]5[C@H](O)[C@H]3O)[C@H]3COC(=O)[C@H]23)OCO4)cc(OC)c1O [ETOPOSIDE] | – | 4.39 µM | – | – | – | – | – |
| O=C(NCCO)[C@@H](Cc1ccc2c(c1)OCO2)[C@@H](CO)Cc1ccc2c(c1)OCO2 | 85.2 µM | 87.4 µM | 45.2 µM | > 100 µM | 7.96 µM | 51.1 µM | – |
| OC[C@@H](Cc1ccc2c(c1)OCO2)[C@@H](CO)Cc1ccc2c(c1)OCO2 | > 100 µM | 30.2 µM | 85.3 µM | 75.5 µM | 7.82 µM | > 100 µM | – |
| O=C(O)CC1OC[C@@H](Cc2ccc3c(c2)OCO3)[C@@H]1Cc1ccc2c(c1)OCO2 (some centres not stated) | > 100 µM | 7.94 µM | > 100 µM | 52.9 µM | 73.9 µM | > 100 µM | – |
| O=C1[C@@H](Cc2ccc3c(c2)OCO3)[C@H](Cc2ccc3c(c2)OCO3)C(=O)N1CCc1ccccc1 | 96.3 µM | 9.15 µM | 64 µM | > 100 µM | 62.6 µM | 66.5 µM | – |
| COc1ccc(CNC(=O)[C@@H](Cc2ccc3c(c2)OCO3)[C@@H](CO)Cc2ccc3c(c2)OCO3)cc1 | 91.5 µM | 8.37 µM | 46.1 µM | 6.61 µM | 9.17 µM | 51.1 µM | Activity (A549 [6]): Active; Activity (A549 [7]): Active; Activity (A549 [8]): Active; Activity (A549 [9]): Active; Activity (A549 [10]): Active; Activity (A549 [11]): Active; Activity (A549 [17]): Active; Activity (A549 [18]): Active |
